Data taken from patent US20240262835A1, “PRMT5 INHIBITING COMPOUNDS AND USES THEREOF” (ANTENGENE DISCOVERY LIMITED, priority 2023, published 2024).

Key:
PRMT5/MEP50 = PRMT5/MEP50 (Homo sapiens (Human), UniProt O14744); experiment: MTase-Glo methyl transferase assay (PRMT5 inhibition); assay type: biochemical; conditions: 50 nM PRMT5/MEP50, 25 μM SAM, 5 μM Histone H4 peptide (1-21), read-out: IC50 for PRMT5 inhibiting
Method: The PRMT5 inhibitory activity of test compounds was determined using the MTase-Glo™ assay (Promega), which monitors the product (S-adenosyl homocysteine or SAH) of methyltransferase reactions. The PRMT5 MTase-Glo assays were conducted in a 384-well white ProxiPlate (PerkinElmer, catalog no.: 6008280) in a total volume of 12 μL. The PRMT5 enzymatic reaction (in 4 μL) contained 50 nM PRMT5/MEP50 (Reaction Biology Corp, catalog no.: HMT-22-148), 25 μM S-adenosyl methionine (SAM, Promega), 5 μM Histone H4 peptide (1-21) (BPS Bioscience, catalog no.: 52018-2) and five-fold serially diluted compounds in a reaction buffer of 50 mM Tris (pH 8.0), 50 mM NaCl, 0.01% Tween 20, 0.01% BSA, and 1 mM DTT. The test compounds were pre-incubated with PRMT5/MEP50 and Histone H4 peptide for 20 minutes at room temperature before the addition of SAM to initiate the PRMT5 reaction. The reaction was allowed to proceed for 1 hour at 37° C. and was terminated by 2 μL of 3× MTase-Glo™ Reagent (Promega) and 150 μM EPZ015666 (Selleck, catalog no.: 1616391-65-1). After a 30-minute incubation at room temperature, 6 μL of MTase-Glo™ Detection Solution (Promega) was added and the plate was incubated at room temperature for an additional 30 minutes. The light signal corresponding to the amount of SAH produced by the PRMT5 reaction was subsequently measured using an Envision multimode reader (PerkinElmer). IC50 and Ki values were obtained by analyzing dose-response curves using GraphPad Prism.

[1] = test system: HCT116 parental (wild type) cells; experiment: HCT116 cell proliferation assay (CTG), parental cells; assay type: cell-based, human; conditions: Cell Titer-Glo
Method: (§1) Control samples were analyzed in parallel.
(§2) On Day 0, 150 HCT116 parental or HCT116 homozygous MTAP knockout cells were seeded in 96-well plates in McCoy's 5A medium containing 10% fetal bovine serum and pen/strep. And the cells were incubated overnight at 37° C. and 5% CO2.
(§3) On Day 1, cells were treated with 9-point serial dilution of compound, using a top concentration of 50 μM, 1:5 serial dilution steps and, a DMSO-only control. And cells were incubated for 6 days.
(§4) On Day 7, cell viability was measured using a CTG assay Kit (Cell Titer-Glo; Promega, catalog no.: G7573) in accordance with the manufacturer's instructions. Assays plates were read on a EnVision™ Multilabel Reader using the Ultra-Sensitive luminescence model. The data were analyzed by GraphPad Prism 5.0 software, and the dose-effect curve was obtained by fitting the data using nonlinear S-curve regression, from which the IC50 value was calculated.

[2] = test system: HCT116 homozygous MTAP knockout cells; experiment: HCT116 cell proliferation assay (CTG), MTAP knockout cells; assay type: cell-based, human; conditions: Cell Titer-Glo
Method: as §1, §2, §3, §4

[3] = biological target: hERG potassium ion channel (Homo sapiens (Human), UniProt Q12809); experiment: hERG potassium ion channel inhibition assay (automated patch-clamp, CHO-hERG cells); assay type: cell-based; conditions: Qpatch, highest test concentration 40.00 μM
Method: Drug-hERG interaction was measured by automated patch-clamp methods, with cisapride as positive control.
1.1 CHO-hERG cells were cultured in 175 cm^2 culture bottle. After the cell density grew to 60-80%, the culture medium was removed, washed with 7 mL of phosphate buffered saline (PBS), and then digested with 3 mL Detachin.
1.2 After the digestion was complete, 7 mL culture solution was added for neutralization, and then centrifuged, the clear solution was sucked, and 5 mL culture solution was added for re-suspension to ensure the cell density was 2˜5×10^6/mL.
The process of single-cell high-impedance sealing and whole-cell pattern formation was all automatically completed by Qpatch instrument. After obtaining whole-cell recording mode, the cell was pinching at −80 millivolts. Before giving a 5-second +40 millivolt depolarization stimulus, a 50-millisecond pre-voltage of −50 millivolts was given first, and then repolarized to −50 millivolts for 5 seconds. Go back to −80 millivolts. This voltage stimulation was applied every 15 seconds, recorded for 2 minutes, then extracellular fluid was given and recorded for 5 minutes, and then the administration process began. The concentration of test compound was given from the lowest test concentration for 2.5 minutes per test concentration. After continuous administration of all concentrations, the positive control 3 μM cisapride was given. At least 2 cells were tested for each concentration (n≥2).
4.1 The compound mother liquor was diluted with DMSO, and 10 μL compound stock solution was added to 20 μL DMSO solution, which was continuously 3-fold diluted to 6 DMSO-concentrations.
4.2 4 μL of test compounds in 6 DMSO-concentrations were added to 396 μL extracellular solution and were 100-fold diluted to 6 intermediate concentrations. Then, 80 μL of test compounds in 6 intermediate concentrations were added to 320 μL extracellular solution and were 5-fold diluted to the final concentration to be tested.
4.3 The highest test concentration was 40.00 μM, and six test concentrations were 40.00, 13.33, 4.44, 1.48, 0.49, 0.16 μM, respectively.
4.5 Entire dilution process for test compound preparation was performed by Bravo instrument.
The experimental data were analyzed by GraphPad Prism 5.0 software.

[4] = In vivo pharmacokinetics assay in mice via IV and PO; design: species or system ICR mice; conditions: IV 1.0 mg/kg
Method: Pharmacokinetics assay for test compounds was performed in mice via IV and PO.
Test compound solution was prepared on the day of administration.
Solvent: IV+PO: 5% DMSO+10% Soultol+85% H2O or saline
Species: ICR mice; SPF level.
Source: Beijing Vital River Laboratory Animal Technology Co., Ltd.
Animal selection: Males. No random grouping
Weighed before dosing, calculated dosage according to body weight. For Groups 1-3, the drug was administered intravenously or intragastrically. For Group 4, the drug administered intragastrically.
For Groups 1-3, at 0.083 h, 0.25 h, 0.5 h, 1 h, 2 h, 4 h, 6 h, 8 h, 24 h, after administration. For Group 4, at 2 h and 4 h after administration.
Blood was collected through the cheeks. For each sample, about 0.05 mL of blood was collected and was added heparin sodium or EDTA-2K as anticoagulant, and was placed on wet ice.
The blood samples were collected and placed on ice and was centrifuged within 1 hour (centrifugation: 6000 g, 3 minutes, 2-8° C.) to separate plasma. Plasma samples were stored in a −80° C. refrigerator prior to analysis.
The pharmacokinetic parameters were calculated using Phoenix WinNonlin8.2.0 based on the blood concentration data at different time points, and AUC0-t, AUC0-∞, MRT0-∞, Cmax, Tmax, and T1/2 and mean values and standard deviations thereof were provided.

[5] = human, microsomes
[6] = Liver microsome metabolic stability (LMS) assay, mouse; conditions: mouse liver microsome 0.5 mg protein/mL, 1 μM, NADPH
[7] = Homo sapiens, HCT-116, 6 days treatment

PRMT5/MEP50, sequence (O14744 whole entry): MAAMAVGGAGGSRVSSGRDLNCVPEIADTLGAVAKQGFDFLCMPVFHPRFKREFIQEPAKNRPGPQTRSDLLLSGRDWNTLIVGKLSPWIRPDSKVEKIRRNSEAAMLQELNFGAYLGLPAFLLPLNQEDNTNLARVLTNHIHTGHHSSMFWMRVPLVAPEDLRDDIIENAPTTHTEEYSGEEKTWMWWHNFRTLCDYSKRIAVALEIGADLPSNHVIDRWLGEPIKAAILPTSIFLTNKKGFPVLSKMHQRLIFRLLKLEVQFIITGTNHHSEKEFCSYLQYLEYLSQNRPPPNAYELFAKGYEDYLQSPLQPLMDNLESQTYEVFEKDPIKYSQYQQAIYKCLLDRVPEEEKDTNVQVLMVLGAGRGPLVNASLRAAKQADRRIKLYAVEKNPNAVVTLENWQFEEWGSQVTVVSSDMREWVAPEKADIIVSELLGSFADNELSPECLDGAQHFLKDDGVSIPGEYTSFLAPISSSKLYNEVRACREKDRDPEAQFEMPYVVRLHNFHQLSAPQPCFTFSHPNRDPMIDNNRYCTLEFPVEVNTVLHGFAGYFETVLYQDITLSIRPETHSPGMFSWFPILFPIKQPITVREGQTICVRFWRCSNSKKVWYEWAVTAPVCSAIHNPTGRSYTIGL
PRMT5/MEP50, sequence (Q9BQA1 whole entry partner): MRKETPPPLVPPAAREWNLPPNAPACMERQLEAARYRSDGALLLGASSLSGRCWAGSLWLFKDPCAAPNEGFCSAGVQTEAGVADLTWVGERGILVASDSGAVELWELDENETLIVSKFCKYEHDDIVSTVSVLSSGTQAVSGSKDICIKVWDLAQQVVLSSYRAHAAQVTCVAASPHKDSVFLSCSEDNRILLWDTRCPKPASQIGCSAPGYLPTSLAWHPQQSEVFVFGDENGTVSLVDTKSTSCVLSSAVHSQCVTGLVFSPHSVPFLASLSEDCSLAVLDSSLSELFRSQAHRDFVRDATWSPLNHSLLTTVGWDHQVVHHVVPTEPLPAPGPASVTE
hERG potassium ion channel, sequence (Q12809 whole entry): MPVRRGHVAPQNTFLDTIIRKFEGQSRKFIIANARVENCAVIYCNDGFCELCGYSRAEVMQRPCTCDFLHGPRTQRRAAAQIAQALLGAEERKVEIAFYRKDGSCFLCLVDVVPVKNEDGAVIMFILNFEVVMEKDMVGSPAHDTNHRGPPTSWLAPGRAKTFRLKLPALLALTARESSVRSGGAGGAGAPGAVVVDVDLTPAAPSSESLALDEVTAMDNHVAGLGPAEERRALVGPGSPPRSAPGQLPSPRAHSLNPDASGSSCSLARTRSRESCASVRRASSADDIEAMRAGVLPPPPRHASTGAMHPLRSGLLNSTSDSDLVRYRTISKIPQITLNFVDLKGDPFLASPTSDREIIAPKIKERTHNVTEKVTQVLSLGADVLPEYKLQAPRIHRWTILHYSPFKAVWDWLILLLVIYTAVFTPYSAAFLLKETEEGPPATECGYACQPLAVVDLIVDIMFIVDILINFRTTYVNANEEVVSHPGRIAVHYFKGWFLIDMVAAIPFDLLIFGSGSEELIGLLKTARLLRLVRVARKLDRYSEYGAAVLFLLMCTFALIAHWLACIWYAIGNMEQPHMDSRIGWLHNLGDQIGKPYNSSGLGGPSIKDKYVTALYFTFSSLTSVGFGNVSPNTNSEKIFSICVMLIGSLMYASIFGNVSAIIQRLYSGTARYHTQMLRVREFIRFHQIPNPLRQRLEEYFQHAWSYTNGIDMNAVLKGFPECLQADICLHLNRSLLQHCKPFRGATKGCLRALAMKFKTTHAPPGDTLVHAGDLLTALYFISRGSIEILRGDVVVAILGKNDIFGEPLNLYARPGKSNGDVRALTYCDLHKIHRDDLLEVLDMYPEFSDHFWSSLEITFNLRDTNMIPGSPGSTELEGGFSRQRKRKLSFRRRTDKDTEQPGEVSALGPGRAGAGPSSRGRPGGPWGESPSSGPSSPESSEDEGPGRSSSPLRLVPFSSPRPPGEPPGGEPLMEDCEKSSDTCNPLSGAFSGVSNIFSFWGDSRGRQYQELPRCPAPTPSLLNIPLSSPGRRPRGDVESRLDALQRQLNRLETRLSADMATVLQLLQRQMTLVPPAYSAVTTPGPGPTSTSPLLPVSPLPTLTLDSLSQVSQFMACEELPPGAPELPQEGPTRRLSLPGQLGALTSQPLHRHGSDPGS

| SMILES | IC50 [2, 7] | IC50 (PRMT5/MEP50) | IC50 [1, 7] | also measured |
| --- | --- | --- | --- | --- |
| Cn1ncc(-c2ccc3c(c2)nc(N)c2cncn23)c1-c1c(F)c(Cl)cc(OC2CC2)c1C#N [Compound 2] | 158 nM | 45 nM | 5.72 µM | – |
| C[C@H]1CC[C@H](c2ccc3c(c2)CCC(=O)N3)N(C(=O)c2ccc3nc(N)c4cncn4c3c2)C1 [Compound 4] | 12 nM | 28 nM | 0.105 µM | – |
| C[C@H](c1ncccn1)N(Cc1ccc(C(F)(F)F)cn1)C(=O)c1ccc2nc(N)n3cncc3c2c1 [Compound 5] | 138 nM | 26 nM | 1.58 µM | – |
| C[C@H](c1ncccn1)N(Cc1ccc(C(F)(F)F)cn1)C(=O)c1cc2c(cc1F)nc(N)c1cncn12 [Compound 6] | 17 nM | 36 nM | 0.23 µM | – |
| CN(C(=O)c1ccc2nc(N)c3cncn3c2c1)C1COc2cc(C(F)(F)F)ccc21 (centres unmarked) [Compound 11] | 64 nM | 51 nM | 7.68 µM | – |
| CN(C(=O)c1ccc2nc(N)c3cncn3c2c1)C1COc2cc(C(F)(F)F)ccc21 (centres unmarked) [Compound 15] | – | 16 nM | – | IC50 [3]: 5.58 µM; IC50 ([1]; 6 days treatment): 5.34 µM; IC50 ([2]; 6 days treatment): 37 nM |
| CN(C(=O)c1ccc2nc(N)c3cncn3c2c1)C1COc2cc(C(F)(F)F)ccc21 (centres unmarked) [Compound 16] | – | 231 nM | – | – |
| CN(C(=O)c1ccc2nc(N)c3cncn3c2c1)C1COc2cc(C(F)(F)F)ccc21 (centres unmarked) [Compound 18] | – | 420 nM | – | – |
| CN(C(=O)c1cc2c(cn1)nc(N)c1cncn12)C1COc2cc(C(F)(F)F)ccc21 (centres unmarked) [Compound 20] | – | 455 nM | – | – |
| CN(C(=O)c1cc2c(cn1)nc(N)c1cncn12)C1COc2cc(C(F)(F)F)ccc21 (centres unmarked) [Compound 22] | – | 1150 nM | – | – |
| CN(C(=O)c1cc2c(cn1)nc(N)c1cncn12)C1CC(F)(F)c2cc(C(F)(F)F)ccc21 (centres unmarked) [Compound 25] | – | 167 nM | – | – |
| CN(C(=O)c1cc2c(cn1)nc(N)c1cncn12)[C@@H]1CC(F)(F)c2cc(C(F)(F)F)ccc21 [Compound 26] | – | 34 nM | – | IC50 [3]: 13.6 µM; Cl [4]: 10.5 mL/kg/min; T1/2 of LMS, H [5]: 139 min; T1/2 of LMS, M [6]: 119 min; IC50 ([1]; 6 days treatment): 6.59 µM; IC50 ([2]; 6 days treatment): 64 nM |
| CN(C(=O)c1cc2c(cn1)nc(N)c1cncn12)C1CC(F)(F)c2cc(C(F)(F)F)ccc21 (centres unmarked) [Compound 27] | – | 1690 nM | – | – |
| CN(C(=O)c1cc2c(cn1)nc(N)c1cncn12)C1COc2cc(C(F)(F)F)cnc21 (centres unmarked) [Compound 31] | 1500 nM | 96 nM | 9.58 µM | – |
| CN(C(=O)c1cc2c(cn1)nc(N)c1cncn12)C1COc2cc(C(F)(F)F)ncc21 (centres unmarked) [Compound 33] | 980 nM | 51 nM | 18 µM | – |
| [2H]C([2H])([2H])N(C(=O)c1cc2c(cn1)nc(N)c1cncn12)C1COc2c1ccc(C(F)(F)F)c2F (centres unmarked) [Compound 34] | 364 nM | 70 nM | 14 µM | – |
| [2H]C([2H])([2H])N(C(=O)c1cc2c(cn1)nc(N)c1cncn12)C1COc2cc(C(F)(F)F)c(F)cc21 (centres unmarked) [Compound 35] | 70 nM | 87 nM | 3.21 µM | – |
| [2H]C([2H])([2H])N(C(=O)c1cc2c(cn1)nc(N)c1cncn12)C1COc2cc(C(F)(F)F)cc(F)c21 (centres unmarked) [Compound 36] | 110 nM | 53 nM | 9.62 µM | – |

More lines, main results first:

| IC50 [2, 7] | SMILES | IC50 (PRMT5/MEP50) | IC50 [1, 7] | also measured |
| --- | --- | --- | --- | --- |
| 73 nM | Cn1ncc(-c2ccc3c(c2)nc(N)c2cncn23)c1-c1c(F)cc2ccccc2c1C#N [Compound 1] | 45 nM | 4.37 µM | – |
| 156 nM | C[C@H](c1ncccn1)N(Cc1ccc(C(F)(F)F)cn1)C(=O)c1ccc2nc(N)c3cncn3c2c1 [Compound 3] | 24 nM | 16 µM | – |
| 33 nM | C[C@H](c1ncccn1)N(Cc1ccc(C(F)(F)F)cn1)C(=O)c1cc2c(cn1)nc(N)c1cncn12 [Compound 10] | 54 nM | 0.495 µM | – |
| 181 nM | CN(C(=O)c1cnc2nc(N)c3cncn3c2c1)[C@@H]1COc2cc(C(F)(F)F)ccc21 [Compound 13] | 40 nM | 4.57 µM | – |
| 40 nM | CN(C(=O)c1ccc2nc(N)c3cncn3c2c1)C1COCc2cc(C(F)(F)F)ccc21 (centres unmarked) [Compound 23] | 31 nM | 5.35 µM | – |
| 483 nM | CN(C(=O)c1ccc2nc(N)c3cncn3c2c1)C1COc2nc(C(F)(F)F)ccc21 (centres unmarked) [Compound 28] | 37 nM | > 50 µM | – |
| 377 nM | CN(C(=O)c1cc2c(cn1)nc(N)c1cncn12)C1COc2nc(C(F)(F)F)ccc21 (centres unmarked) [Compound 29] | 37 nM | 21.9 µM | – |
| 4020 nM | CN(C(=O)c1ccc2nc(N)c3cncn3c2c1)C1COc2cc(C(F)(F)F)cnc21 (centres unmarked) [Compound 30] | 89 nM | > 50 µM | – |
| 286 nM | CN(C(=O)c1ccc2nc(N)c3cncn3c2c1)C1COc2cc(C(F)(F)F)ncc21 (centres unmarked) [Compound 32] | 25 nM | 8.09 µM | – |
| 234 nM | [2H]C([2H])([2H])N(C(=O)c1ccc2nc(N)c3cncn3c2c1)C1COc2cc(OC(F)F)ccc21 (centres unmarked) [Compound 37] | 29 nM | 13.8 µM | – |
